Active and inactive are the calls of the source. The rule behind the calls is not given here.
Experiments:
Trypsin = Trypsin (Homo sapiens, UniProt P07477+P07478+P35030); experiment: Inhibition of trypsin (unknown origin); assay type: protein assay
Prothrombin = Prothrombin (Homo sapiens, UniProt P00734); experiment: Inhibition of thrombin (unknown origin)
Coagulation factor X = Coagulation factor X (Homo sapiens, UniProt P00742); experiment: Inhibition of factor 10a (unknown origin)
[1] = molecular target: T1, Coagulation factor VII/tissue factor (Homo sapiens) (UniProt P08709+P13726); experiment: Noncompetitive inhibition of human recombinant soluble tissue factor-factor 7a using physiological substrate; assay type: protein-complex assay
[2] = molecular target: T1, Coagulation factor VII/tissue factor (Homo sapiens); experiment: Competitive inhibition of human recombinant soluble tissue factor-factor 7a using tripeptide as substrate; assay type: protein-complex assay
[3] = Dissociation constant, pKa of the compound; assay type: physicochemical
[4] = molecular target: Coagulation factor VII/tissue factor (Homo sapiens, UniProt P08709); experiment: Inhibition of human recombinant soluble tissue factor-factor 7a using H-D-Ile-Pro-Arg-pNA as substrate; assay type: protein-complex assay
Sequence of Coagulation factor VII/tissue factor (P08709 61-212 limits assumed): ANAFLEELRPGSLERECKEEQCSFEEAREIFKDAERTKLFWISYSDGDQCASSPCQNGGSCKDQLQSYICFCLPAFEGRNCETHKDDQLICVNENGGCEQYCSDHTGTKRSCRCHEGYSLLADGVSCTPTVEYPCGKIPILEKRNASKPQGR
Sequence of Coagulation factor VII/tissue factor (P08709 213-466 limits assumed): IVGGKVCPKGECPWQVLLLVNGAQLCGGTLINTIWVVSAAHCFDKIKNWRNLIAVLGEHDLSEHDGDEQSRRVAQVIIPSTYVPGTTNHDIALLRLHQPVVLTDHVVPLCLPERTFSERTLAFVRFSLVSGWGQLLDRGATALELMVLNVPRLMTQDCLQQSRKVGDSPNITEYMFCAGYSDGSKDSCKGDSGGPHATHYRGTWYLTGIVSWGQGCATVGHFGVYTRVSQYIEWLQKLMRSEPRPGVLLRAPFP
Sequence of Coagulation factor VII/tissue factor (P13726 33-295 partner limits assumed): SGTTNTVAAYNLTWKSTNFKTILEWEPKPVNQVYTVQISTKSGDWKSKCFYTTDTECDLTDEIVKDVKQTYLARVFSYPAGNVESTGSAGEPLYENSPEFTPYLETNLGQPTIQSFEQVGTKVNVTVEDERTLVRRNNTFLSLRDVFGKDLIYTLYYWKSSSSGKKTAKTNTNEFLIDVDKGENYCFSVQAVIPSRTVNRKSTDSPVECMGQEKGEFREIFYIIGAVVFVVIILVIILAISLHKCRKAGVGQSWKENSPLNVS

[5] = Oral bioavailability in dog at 0.5 mg/kg; assay type: ADME, organism-based, Canis lupus familiaris; conditions: in vivo
[6] = Volume of distribution at steady state in dog at 0.2 mg/kg, iv; assay type: ADME, organism-based, Canis lupus familiaris; set-up: dose 0.2 mg/kg, route intravenous; conditions: in vivo, read-out: Vdss
[7] = Half life in dog at 0.2 mg/kg, iv; assay type: ADME, organism-based, Canis lupus familiaris; set-up: dose 0.2 mg/kg, route intravenous; conditions: in vivo
[8] = Clearance in dog at 0.2 mg/kg, iv; assay type: ADME, organism-based, Canis lupus familiaris; set-up: dose 0.2 mg/kg, route intravenous; conditions: in vivo
[9] = Anticoagulant activity in plasma (unknown origin) assessed as concentration required to double prothrombin time; assay type: functional, unidentified

Sequence of Coagulation factor X (P00742 41-179 limits assumed): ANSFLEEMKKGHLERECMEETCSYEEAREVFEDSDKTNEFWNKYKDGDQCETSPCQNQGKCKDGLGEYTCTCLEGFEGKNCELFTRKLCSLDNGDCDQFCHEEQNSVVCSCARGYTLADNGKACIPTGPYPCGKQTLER
Sequence of Coagulation factor X (P00742 235-488 limits assumed): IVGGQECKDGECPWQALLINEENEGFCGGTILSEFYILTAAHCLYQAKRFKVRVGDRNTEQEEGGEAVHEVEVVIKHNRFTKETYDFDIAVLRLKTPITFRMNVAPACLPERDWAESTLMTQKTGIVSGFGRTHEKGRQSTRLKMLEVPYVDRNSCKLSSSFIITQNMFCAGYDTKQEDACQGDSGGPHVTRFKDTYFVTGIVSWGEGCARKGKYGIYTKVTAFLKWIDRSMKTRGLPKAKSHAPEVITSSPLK

Ki (Trypsin) [µM] | Ki (Prothrombin) [µM] | Ki (Coagulation factor X) [µM] | Ki [4] [µM] | Structure (SMILES) | also measured
> 5 | > 13 | 5.9 | 0.01 | CCOc1cc(C(Nc2ccc3c(N)nccc3c2)C(=O)NS(=O)(=O)c2cccc(S(N)(=O)=O)c2)ccc1OC(C)C (centres undefined) | –
4.7 | 4.3 | 3.5 | – | CCOc1cc(C(Nc2ccc3c(N)nccc3c2)C(=O)NS(=O)(=O)c2ccccc2)ccc1OC(C)C (centres undefined) | inhibition [1]: Active; inhibition [2]: Active; pKa [3]: 8.9
> 5 | 7.4 | 5.8 | 0.009 | CCOc1cc(C(Nc2ccc3c(N)nccc3c2)C(=O)NS(=O)(=O)c2ccc(N)cc2)ccc1OC(C)C (centres undefined) | –
– | – | – | 0.39 | CCOc1cc(C(Nc2ccc3c(N)ncnc3c2)C(=O)NS(=O)(=O)c2ccccc2)ccc1OC(C)C (centres undefined) | –
> 5 | 9.4 | 5.6 | 0.0028 | CCOc1cc([C@@H](Nc2ccc3c(N)nccc3c2)C(=O)NS(=O)(=O)c2cccc(S(N)(=O)=O)c2)ccc1OC(C)C | 2PT [9]: 14 µM
> 5 | > 13 | 7.2 | 0.78 | CCOc1cc(C(Nc2ccc3cnccc3c2)C(=O)NS(=O)(=O)c2cccc(S(=O)(=O)N(C)C)c2)ccc1OC(C)C (centres undefined) | –
> 5 | > 13 | > 8 | 0.073 | CCOc1cc(C(Nc2ccc3cnccc3c2)C(=O)NS(=O)(=O)c2ccccc2S(N)(=O)=O)ccc1OC(C)C (centres undefined) | –
> 5 | 11 | 5.5 | 0.026 | CCOc1cc(C(Nc2ccc3c(N)nccc3c2)C(=O)NS(=O)(=O)c2cccc(O)c2)ccc1OC(C)C (centres undefined) | –
– | – | – | 1.94 | CCOc1cc(C(Nc2ccc3c(N)noc3c2)C(=O)NS(=O)(=O)c2ccccc2)ccc1OC(C)C (centres undefined) | –
– | – | – | 0.0013 | CCOc1cc(C(Nc2ccc(C(=N)N)cc2)C(=O)NS(=O)(=O)c2ccccc2)ccc1OC(C)C (centres undefined) | 2PT [9]: 4 µM; inhibition [1]: Active; inhibition [2]: Active
> 5 | > 13 | 7 | 0.25 | CCOc1cc(C(Nc2ccc3cnccc3c2)C(=O)NS(=O)(=O)c2cccc(S(=O)(=O)NC)c2)ccc1OC(C)C (centres undefined) | –

Further lines, the compound ahead of its results:

Structure (SMILES) | Ki (Trypsin) [µM] | Ki (Prothrombin) [µM] | Ki (Coagulation factor X) [µM] | Ki [4] [µM] | also measured
CCOc1cc(C(Nc2ccc3cnccc3c2)C(=O)NS(=O)(=O)c2ccccc2)ccc1OC(C)C (centres undefined) | > 5 | > 13 | 5.4 | 0.07 | inhibition [1]: Active; inhibition [2]: Active; pKa [3]: 7.8
CCOc1cc(C(Nc2ccc3cnccc3c2)C(=O)NS(=O)(=O)c2cccc(S(C)(=O)=O)c2)ccc1OC(C)C (centres undefined) | > 5 | > 13 | > 8 | 0.145 | –
CCOc1cc(C(Nc2ccc3c(N)nccc3c2)C(=O)NS(=O)(=O)c2cccc(CO)c2)ccc1OC(C)C (centres undefined) | > 5 | 11 | > 8 | 0.028 | –
CCOc1cc([C@@H](Nc2ccc3c(N)nccc3c2)C(=O)NS(=O)(=O)c2ccccc2)ccc1OC(C)C | > 5 | 6.9 | 7.3 | – | bioavailability [5]: 4%; Vd [6]: 1.5 L/kg; half-life [7]: 1.5 h; clearance [8]: 24 mL/min/kg; 2PT [9]: 36 µM
CCOc1cc([C@@H](Nc2ccc3cnccc3c2)C(=O)NS(=O)(=O)c2cccc(S(N)(=O)=O)c2)ccc1OC(C)C | > 5 | > 13 | > 8 | 0.017 | –
CCOc1cc(C(Nc2ccc3cnccc3c2)C(=O)NS(=O)(=O)c2ccc(S(N)(=O)=O)cc2)ccc1OC(C)C (centres undefined) | > 5 | > 13 | > 8 | 0.32 | –
CCOc1cc(C(Nc2ccc3c(N)nccc3c2)C(=O)NS(=O)(=O)c2ccc(C)cc2)ccc1OC(C)C (centres undefined) | 3.04 | 2.9 | 3.05 | 0.197 | –
CCOc1cc(C(Nc2ccc3nc(N)[nH]c3c2)C(=O)NS(=O)(=O)c2ccccc2)ccc1OC(C)C (centres undefined) | – | – | – | 0.67 | –
CCOc1cc(C(Nc2ccc3c(N)n[nH]c3c2)C(=O)NS(=O)(=O)c2ccccc2)ccc1OC(C)C (centres undefined) | – | – | – | 2.9 | –
CCOc1cc(C(Nc2ccc3c(N)nccc3c2)C(=O)NS(=O)(=O)c2ccc(O)cc2)ccc1OC(C)C (centres undefined) | > 5 | > 13 | > 8 | 0.007 | –
CCOc1cc(C(Nc2ccc3cnccc3c2)C(=O)NS(=O)(=O)c2ccccc2S(=O)(=O)CC)ccc1OC(C)C (centres undefined) | > 5 | 9.4 | > 8 | 0.006 | –
CCOc1cc(C(Nc2ccc3c(N)nccc3c2)C(=O)NS(=O)(=O)c2cccc(N)c2)ccc1OC(C)C (centres undefined) | > 5 | > 13 | > 8 | 0.048 | –
CCOc1cc(C(Nc2ccc3cnccc3c2)C(=O)NS(=O)(=O)c2cccc(S(N)(=O)=O)c2)ccc1OC(C)C (centres undefined) | > 5 | > 13 | > 8 | 0.032 | –
CCOc1cc(C(Nc2ccc3cnccc3c2)C(=O)NS(=O)(=O)c2ccc(S(C)(=O)=O)cc2)ccc1OC(C)C (centres undefined) | > 5 | > 13 | > 8 | 8.1 | –
CCOc1cc([C@@H](Nc2ccc3cnccc3c2)C(=O)NS(=O)(=O)c2ccccc2)ccc1OC(C)C | > 5 | > 13 | > 8 | 0.044 | bioavailability [5]: 36%; Vd [6]: 0.6 L/kg; half-life [7]: 0.9 h; clearance [8]: 9.3 mL/min/kg; 2PT [9]: >80 µM
CCOc1cc([C@H](Nc2ccc3c(N)nccc3c2)C(=O)NS(=O)(=O)c2ccccc2)ccc1OC(C)C | > 5 | > 13 | 8.2 | – | –
CCOc1cc(C(Nc2ccc3cnccc3c2)C(=O)NS(=O)(=O)c2ccccc2S(C)(=O)=O)ccc1OC(C)C (centres undefined) | > 5 | 10.3 | > 8 | 0.012 | 2PT [9]: 76 µM
CCOc1cc(C(Nc2ccc3c(N)nccc3c2)C(=O)NS(=O)(=O)c2cccc(C(N)=O)c2)ccc1OC(C)C (centres undefined) | > 5 | > 13 | > 8 | 0.018 | –

— ChEMBL document CHEMBL2429763, “Nonbenzamidine acylsulfonamide tissue factor-factor VIIa inhibitors” (Bioorg Med Chem Lett, 2013)
